From ChEMBL document CHEMBL3046053, “Synthesis, characterization and herbicidal activity of new thiazoline derivatives” (2013)

Columns and labels:
Format in all cases: functional
Conditions in all cases: read-out: GI
Brassica napus [1] = assay: Herbicidal activity against Brassica napus (oilseed rape) assessed as inhibition of root growth at 100 mg/L relative to untreated control
Brassica napus [2] = assay: Herbicidal activity against Brassica napus (oilseed rape) assessed as inhibition of stalk growth at 100 mg/L relative to untreated control
Echinochloa crus-galli [3] = assay: Herbicidal activity against barnyard grass Echinochloa crus-galli (barnyard grass) assessed as inhibition of stalk growth at 10 mg/L relative to untreated control
Echinochloa crus-galli [4] = assay: Herbicidal activity against barnyard grass Echinochloa crus-galli (barnyard grass) assessed as inhibition of stalk growth at 100 mg/L relative to untreated control
Echinochloa crus-galli [5] = assay: Herbicidal activity against barnyard grass Echinochloa crus-galli (barnyard grass) assessed as inhibition of root growth at 10 mg/L relative to untreated control
Brassica napus [6] = assay: Herbicidal activity against Brassica napus (oilseed rape) assessed as inhibition of stalk growth at 10 mg/L relative to untreated control
Echinochloa crus-galli [7] = assay: Herbicidal activity against barnyard grass Echinochloa crus-galli (barnyard grass) assessed as inhibition of root growth at 100 mg/L relative to untreated control
Brassica napus [8] = assay: Herbicidal activity against Brassica napus (oilseed rape) assessed as inhibition of root growth at 10 mg/L relative to untreated control

Row | Compound | inhibition of growth at 100 µg/mL (Brassica napus [1]) [%] | inhibition of growth at 100 µg/mL (Brassica napus [2]) [%] | inhibition of growth at 10 µg/mL (Echinochloa crus-galli [3]) [%] | inhibition of growth at 100 µg/mL (Echinochloa crus-galli [4]) [%] | inhibition of growth at 10 µg/mL (Echinochloa crus-galli [5]) [%] | inhibition of growth at 10 µg/mL (Brassica napus [6]) [%] | inhibition of growth at 100 µg/mL (Echinochloa crus-galli [7]) [%] | inhibition of growth at 10 µg/mL (Brassica napus [8]) [%]
1 | CCOC(=O)c1s/c(=N\CCCCCC/N=c2/sc(C(=O)OCC)c(N)n2-c2ccccc2)n(-c2ccccc2)c1N | 50 | 32 | 19.2 | 38.5 | 34.5 | 12 | 69 | 21.8
2 | CCOC(=O)c1s/c(=N\CCC/N=c2\sc(C(=O)OCC)c(N)n2-c2ccccc2)n(-c2ccccc2)c1N | 41 | 36 | 3.8 | 34.6 | 31 | 12 | 58.6 | 7.7
3 | CCOC(=O)c1s/c(=N\CC/N=c2/sc(C(=O)OCC)c(N)n2-c2ccccc2)n(-c2ccccc2)c1N | 76.9 | 52 | 15.4 | 34.6 | 37.9 | 52 | 58.6 | 39.7
4 | CCOC(=O)c1s/c(=N\c2ccc(OC)cc2)n(-c2ccccc2)c1N | 94.3 | 92 | 42.2 | 61.9 | 74.4 | 66 | 90.7 | 64
5 | CCOC(=O)c1s/c(=N\c2ccc(C)cc2)n(-c2ccccc2)c1N | 79.2 | 44 | 25.9 | 49.6 | 79.1 | 44 | 88.4 | 34
6 | CCOC(=O)c1s/c(=N\c2ccc(Br)cc2)n(-c2ccccc2)c1N | 90.6 | 72 | 31.6 | 48.1 | 76.7 | 44 | 88.4 | 32.1
7 | CCOC(=O)c1s/c(=N\Cc2ccccc2Cl)n(-c2ccccc2)c1N | 38.6 | 34.8 | 12.9 | 26.5 | 18.8 | -13 | 19.4 | -9.3
8 | CCOC(=O)c1s/c(=N\c2ccccc2)n(-c2ccccc2)c1N | 71.7 | 64 | 31.6 | 43.3 | 69.8 | 52 | 86 | 37.7
9 | CCOC(=O)c1s/c(=N\Cc2ccccc2)n(-c2ccccc2)c1N | 98.1 | 92 | 40.7 | 44.4 | 74.4 | 20 | 83.7 | 47.2
10 | CCCC/N=c1\sc(C(=O)OCC)c(N)n1-c1ccccc1 | 29.3 | 39.1 | 19.4 | 22.6 | 25 | 0 | 34.4 | 0
11 | CCCCCC/N=c1\sc(C(=O)OCC)c(N)n1-c1ccccc1 | 92.5 | 89 | 33.3 | 33.3 | 76.7 | 64 | 86 | 43.4
12 | CCC/N=c1\sc(C(=O)OCC)c(N)n1-c1ccccc1 | 48 | 26.1 | 9.7 | 35.5 | 50 | 4.3 | 68.1 | 40
13 | O=C(O)COc1ccc(Cl)cc1Cl [2,4-DICHLOROPHENOXYACETIC ACID] | 98 | 91.2 | 33.3 | 43.5 | 90 | 87.5 | 97.5 | 88.8
